In PubChem BioAssay (NCI):
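96-well plates; 48 h exposure; 5 concentrations. Endpoints by linear interpolation between flanking doses. Not reached: highest tested concentration assigned. GI50: concentration for 50% inhibition of growth. TGI: total growth inhibition.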

What was measured:
Test in all cases: inhibition of tumour cell growth, NCI panel, 48 h
[1] = test system: IGROV1 ovarian
[2] = test system: MALME-3M melanoma
[3] = test system: SNB-19 CNS
[4] = test system: SNB-75 CNS
[5] = test system: MDA-MB-231 breast
[6] = test system: SK-OV-3 ovarian
[7] = test system: K-562 leukemia
[8] = test system: SK-MEL-5 melanoma
[9] = test system: A498 renal
[10] = test system: UACC-257 melanoma

SMILES | GI50 [1] | TGI [1] | GI50 [2] | TGI [2] | GI50 [3] | TGI [3] | GI50 [4] | TGI [4] | GI50 [5] | TGI [5] | GI50 [6] | TGI [6] | GI50 [7] | TGI [7] | GI50 [8] | TGI [8] | GI50 [9] | TGI [9] | GI50 [10] | TGI [10]
CC(=O)c1c(CN(C)c2ccccc2)n([O-])c2ccccc2[n+]1=O | 45.4 µM | > 100 µM | 23.9 µM | 87.2 µM | 17.5 µM | 57.1 µM | 53 µM | > 100 µM | 27.1 µM | > 100 µM | 31.8 µM | 70 µM | 28.6 µM | > 100 µM | 16 µM | 42.4 µM | 28.1 µM | > 100 µM | 89.2 µM | > 100 µM
Clc1ccc(-c2nnc(-c3cccc4ccccc34)o2)cc1Cl | – | 53.9 µM | – | > 100 µM | – | > 100 µM | – | > 100 µM | – | > 100 µM | – | > 100 µM | – | > 100 µM | – | > 100 µM | – | > 100 µM | – | > 100 µM
CN(COC(=O)c1ccccc1)c1nc(N(C)COC(=O)c2ccccc2)nc(N(C)COC(=O)c2ccccc2)n1 | – | > 100 µM | – | > 100 µM | – | 51.7 µM | – | > 100 µM | – | 53.4 µM | – | > 100 µM | – | > 100 µM | – | > 100 µM | – | 40.8 µM | – | > 100 µM
O=C(O)C1CCCCC1c1c2ccc(=O)c(O)c-2oc2c(O)c(O)ccc12 (stereo not given) | – | > 100 µM | – | > 100 µM | – | > 100 µM | – | > 100 µM | – | 38.1 µM | – | > 100 µM | – | 60.6 µM | – | > 100 µM | – | > 100 µM | – | > 100 µM
NC1=NC(c2ccc(Cl)cc2)N(c2ccc(S(N)(=O)=O)cc2)C(N)=N1 (stereo not given) | – | > 100 µM | – | > 100 µM | – | > 100 µM | – | > 100 µM | – | > 100 µM | – | > 100 µM | – | > 100 µM | – | > 100 µM | – | > 100 µM | – | > 100 µM
Brc1ccc2[nH]cc(-c3nc(-c4c[nH]c5ncccc45)cs3)c2c1 | 3.17 µM | 23 µM | 4.46 µM | 18.8 µM | 5.29 µM | 19.8 µM | 2.08 µM | 13.4 µM | 1.59 µM | 5.99 µM | 5.71 µM | 20.4 µM | 2.71 µM | > 100 µM | 2.97 µM | 12.9 µM | 1.94 µM | 10.9 µM | 2.5 µM | 7.26 µM
Cc1ccc(-c2c3c(nn2-c2ccc(S(N)(=O)=O)cc2)-c2ccccc2C3)cc1 | 3.27 µM | 16 µM | 11.6 µM | 26.5 µM | 37.4 µM | > 100 µM | 17.5 µM | 33.8 µM | 14.5 µM | 37.4 µM | 47.3 µM | > 100 µM | 16.2 µM | 53.9 µM | 1.21 µM | 5.76 µM | 6.07 µM | 21 µM | 21.9 µM | 40.3 µM
Cc1cc2cc3ccc(N(C)C)cc3nc2cc1N | 0.528 µM | 2.9 µM | 0.929 µM | 3.42 µM | 0.582 µM | 4.42 µM | 1.04 µM | 2.3 µM | 1.12 µM | 2.88 µM | 0.552 µM | 3.35 µM | 0.418 µM | > 21 µM | 0.767 µM | 2.25 µM | 0.433 µM | 2.05 µM | 1.12 µM | 3.04 µM
ON(Cc1ccccc1)C(=S)c1ccccc1 | – | > 100 µM | – | > 100 µM | – | > 100 µM | – | > 100 µM | – | > 100 µM | – | > 100 µM | – | > 100 µM | – | > 100 µM | – | > 100 µM | – | 39.4 µM
O=C(O)C1CC2(C1)CC(C(=O)O)C2 (stereo not given) | – | > 100 µM | – | > 100 µM | – | > 100 µM | – | > 100 µM | – | > 100 µM | – | > 100 µM | – | > 100 µM | – | > 100 µM | – | > 100 µM | – | > 100 µM
COc1cc2c(cc1OC)C(Sc1ccc(SC)cc1)c1c(nc(N)c(C#N)c1N)O2 (stereo not given) | 1.23 µM | 3.24 µM | 1.85 µM | 3.35 µM | 1.45 µM | 2.8 µM | 1.54 µM | 3.16 µM | 1.55 µM | 2.92 µM | 1.88 µM | 3.31 µM | 1.74 µM | 5.59 µM | 1.69 µM | 3.07 µM | 1.61 µM | 3.28 µM | 2.07 µM | 3.51 µM
CCOC(=O)c1c(C)n(Cc2ccccc2)c2c1cc(O)c1[nH]c(Cc3ccccc3)nc12 | 15.8 µM | > 57.7 µM | 9.93 µM | 58 µM | 23.6 µM | > 67.9 µM | 8.04 µM | 42.3 µM | 20.1 µM | > 85.9 µM | 23.2 µM | > 100 µM | 0.679 µM | > 40 µM | 9.89 µM | 39.1 µM | 28.5 µM | > 86.1 µM | 16.2 µM | > 70.2 µM
COc1cccc(-c2nn(-c3ccccc3)cc2-c2ccnc(NCCNC(=O)Nc3cccc(C(F)(F)F)c3)c2)c1 | 2.88 µM | 9.34 µM | 1.76 µM | 3.9 µM | 3.12 µM | 11.9 µM | 1.62 µM | 12.5 µM | 1.97 µM | 4.58 µM | 3.5 µM | 12.2 µM | 2.13 µM | 4.83 µM | 1.73 µM | 3.15 µM | 2.49 µM | 8.37 µM | 2.14 µM | 4.81 µM
Cc1ccc(/C=C2\CN(C(=O)C(Cl)Cl)C/C(=C\c3ccc(C)cc3)C2=O)cc1 | 0.18 µM | 0.367 µM | 0.35 µM | 2.04 µM | 0.286 µM | 1.03 µM | 0.573 µM | 2.9 µM | 0.337 µM | 1.57 µM | 1 µM | > 100 µM | 0.142 µM | > 100 µM | 0.445 µM | 1.53 µM | 0.203 µM | 0.79 µM | 0.346 µM | 3.16 µM
CN(Cc1cccc(F)c1)c1ccc(CO)c(Cl)c1 | 0.361 µM | 3.05 µM | 27.5 µM | > 88.9 µM | 32.8 µM | > 100 µM | 14.4 µM | 51.6 µM | 24.7 µM | > 100 µM | 11.4 µM | 50.4 µM | 8.99 µM | > 100 µM | 11 µM | 23.3 µM | 0.057 µM | 0.189 µM | 0.304 µM | 1.33 µM
